Data from US20110288154A1, “RNA Interference Mediated Inhibition of Epithelial Sodium Channel (ENaC) Gene Expression Using Short Interfering Nucleic Acid (siNA)” (MERCK & CO., INC., priority 2008, published 2011).
[invAb] = inverted abasic unit; m = 2'-O-methyl; r = 2'-OH (RNA); f = 2'-fluoro

Experiments:
[1] = test system: rSCNN1A (r ENaCα) mRNA; assay: Screening of ENaCα siNAs in Rat H-4-II-E cells (quantitative RT-PCR); assay type: cell-based; parameters: Percent Reduction of the r ENaCα mRNA relative to a non-targeting control siNA (NTCs) / Rat % KD (efficacy of ENaCα mRNA knockdown): concentration or dose not given beside the values; settings: for Mean (rSCNN1A expression normalized to the level of rGAPDH) / Percent Reduction of the r ENaCα mRNA relative to a non-targeting control siNA (NTCs) / Avg ENaCα Expression (rSCNN1A) / Avg GAPDH Expression (rGAPDH): Rat H-4-II-E cells, n = 3; for Mean (rSCNN1A expression normalized to the level of rGAPDH) / Percent Reduction of the r ENaCα mRNA relative to a non-targeting control siNA (NTCs) / Avg GAPDH Expression (rGAPDH): 24 hours post-transfection; for Avg ENaCα Expression (rSCNN1A): harvested 24 hours post-transfection; for Avg GAPDH Expression (rGAPDH): housekeeping gene used for normalisation; for IC50 / Rat % KD (efficacy of ENaCα mRNA knockdown): rat cell line; for IC50: dose response, read-out: Rat IC50 (potency of ENaCα mRNA knockdown); for Rat % KD (efficacy of ENaCα mRNA knockdown): summary
Method in brief: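 Knockdown read-out: qRT-PCR quantified against a standard curve of same-cell-line RNA, ENaCα normalized to species housekeeping gene (GAPDH or 36B4) and expressed versus non-targeting control. Cells received lipid-complexed siNA, 25 nM final, in triplicate and were assayed at 24 h; IC50 by variable-slope sigmoidal fit.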

[2] = test system: ENaCα mRNA; assay: Screening of ENaCα siNAs in human A549 cells (quantitative RT-PCR); assay type: cell-based; parameters: Percent Reduction of the ENaCα mRNA relative to a non-targeting control siNA (NTC): concentration or dose not given beside the values; settings: for Avg ENaCα Expression / Mean (level of ENaCα expression normalized to the level of GAPDH) / Percent Reduction of the ENaCα mRNA relative to a non-targeting control siNA (NTC) / Avg GAPDH Expression: human A549 cells, n = 3; for Avg ENaCα Expression: 25 nM siNA with Lipofectamine 2000, harvested 24 hours post-transfection; for Mean (level of ENaCα expression normalized to the level of GAPDH) / Percent Reduction of the ENaCα mRNA relative to a non-targeting control siNA (NTC) / Avg GAPDH Expression: 24 hours post-transfection; for Avg GAPDH Expression: housekeeping gene used for normalisation; for IC50 / Human % KD (efficacy of ENaCα mRNA knockdown): human cell line; for IC50: dose response, read-out: Human IC50 (potency of ENaCα mRNA knockdown); for Human % KD (efficacy of ENaCα mRNA knockdown): summary
Method in brief: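 ENaCα knockdown in human A549 cells is measured by qRT-PCR (standard-curve quantitation), normalized to a non-targeting siNA control. Lipofectamine 2000 complexes deliver 25 nM siNA per well (lipid 2.33 μg/ml, held constant in dose-response); IC50 from a sigmoidal variable-slope fit.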

Substance | Mean (rSCNN1A expression normalized to the level of rGAPDH) [1] | Percent Reduction of the r ENaCα mRNA relative to a non-targeting control siNA (NTCs) [1] [%] | Avg ENaCα Expression (rSCNN1A) [1] | Avg GAPDH Expression (rGAPDH) [1] | Avg ENaCα Expression [2] | Mean (level of ENaCα expression normalized to the level of GAPDH) [2] | Percent Reduction of the ENaCα mRNA relative to a non-targeting control siNA (NTC) [2] [%] | Avg GAPDH Expression [2] | IC50 [1] [nM] | Rat % KD (efficacy of ENaCα mRNA knockdown) [1] [%] | IC50 [2] [nM] | Human % KD (efficacy of ENaCα mRNA knockdown) [2]
B GcAuGAAGAcGGccuucuG TTB / CAGAAGGccGuCuucAuGcUU (chain 1 GCAUGAAGACGGCCUUCUGTT; chain 2 CAGAAGGCCGUCUUCAUGCUU; siRNA; chain 1: DNA at AGT, 2'-fluoro at CU, [invAb] at 5' end, 3' end, backbone not given here; chain 2: sugars from the 5' end rrrmmmmffmfmfffmfmfmm, backbone not given here) [Site 341] | 1.05 | 18.4 | 19.10 | 18.30 | 62.42 | 1.62 | −4.3 | 48.12 |  |  |  | 
B GcuGuGccuAcAucuucuA TTB / UAGAAGAuGuAGGcAcAGcUU (sense GCUGUGCCUACAUCUUCUATT; antisense UAGAAGAUGUAGGCACAGCUU; siRNA; B caps on sense ends, letter-case modifications not given here, further chemistry not given here) [Site 1388] | 0.32 | 65.6 | 11.65 | 37.10 | 36.49 | 0.30 | 54.1 | 120.24 | 0.9 | 65 | 0.19 | 55-80%
B AGuGuGGcuGuGccuAcAu TTB / AUGuAGGcAcAGccAcAcuUU (sense AGUGUGGCUGUGCCUACAUTT; antisense AUGUAGGCACAGCCACACUUU; siRNA; sense: DNA at AGT, 2'-fluoro at CU, [invAb] at 5' end, 3' end, backbone not given here; antisense: sugars from the 5' end rrrfmmmfmfmmffmfmffmm, backbone not given here) [Site 1382] | 0.84 | 34.5 | 22.02 | 26.11 | 72.49 | 1.30 | 16.6 | 57.29 |  |  |  | 
B GccAuccGccuGGuGuGcu TTB / AGCAcAccAGGcGGAuGGcUU (sense GCCAUCCGCCUGGUGUGCUTT; antisense AGCACACCAGGCGGAUGGCUU; siRNA; sense: DNA at AGT, 2'-fluoro at CU, [invAb] at 5' end, 3' end, backbone not given here; antisense: sugars from the 5' end rrrmfmffmmmfmmrfmmfmm, backbone not given here) [Site 310] | 0.92 | 28.3 | 18.39 | 20.12 | 68.10 | 1.57 | −1.0 | 45.78 |  |  |  | 
B GuGuGGcuGuGccuAcAuc TTB / GAUGuAGGcAcAGccAcAcUU (sense GUGUGGCUGUGCCUACAUCTT; antisense GAUGUAGGCACAGCCACACUU; siRNA; B caps on sense ends, letter-case modifications not given here, further chemistry not given here) [Site 1383] | 0.63 | 50.7 | 15.01 | 23.52 | 40.44 | 0.78 | 49.8 | 52.36 | 1 | 50 | 0.41 | 50-70%
B AccuGGGcAGccAGuGGAG TTB / CUCcAcuGGcuGcccAGGuUU (sense ACCUGGGCAGCCAGUGGAGTT; antisense CUCCACUGGCUGCCCAGGUUU; siRNA; sense: DNA at AGT, 2'-fluoro at CU, [invAb] at 5' end, 3' end, backbone not given here; antisense: sugars from the 5' end rrrfmffmmffmfffmmmfmm, backbone not given here) [Site 1748] | 0.60 | 34.7 | 26.11 | 43.45 | 80.25 | 0.61 | 7.2 | 131.14 |  |  |  | 
B cuccuGuccAAccuGGGcA TTB / UGCccAGGuuGGAcAGGAGUU (sense CUCCUGUCCAACCUGGGCATT; antisense UGCCCAGGUUGGACAGGAGUU; siRNA; sense: DNA at AGT, 2'-fluoro at CU, [invAb] at 5' end, 3' end, backbone not given here; antisense: sugars from the 5' end rrrffmmmffmmmfmmmmmmm, backbone not given here) [Site 1738] | 0.63 | 31.1 | 21.90 | 35.43 | 77.23 | 0.71 | −7.4 | 108.96 |  |  |  | 
B cGcAuGAAGAcGGccuucu TTB / AGAAGGccGucuucAuGcGUU (chain 1 CGCAUGAAGACGGCCUUCUTT; chain 2 AGAAGGCCGUCUUCAUGCGUU; siRNA; chain 1: DNA at AGT, 2'-fluoro at CU, [invAb] at 5' end, 3' end, backbone not given here; chain 2: sugars from the 5' end rrrmmmffmfffffmfmfmmm, backbone not given here) [Site 340] | 1.07 | 16.7 | 22.68 | 21.20 | 84.94 | 1.40 | 9.9 | 63.09 |  |  |  | 
B cAcAAccGcAuGAAGAcGG TTB / CCGucuucAuGcGGuuGuGUU (chain 1 CACAACCGCAUGAAGACGGTT; chain 2 CCGUCUUCAUGCGGUUGUGUU; siRNA; chain 1: DNA at AGT, 2'-fluoro at CU, [invAb] at 5' end, 3' end, backbone not given here; chain 2: sugars from the 5' end rrrfffffmfmfmmffmfmmm, backbone not given here) [Site 334] | 0.85 | 33.7 | 16.10 | 19.11 | 58.30 | 1.49 | 4.5 | 42.86 |  |  |  | 
